Measurements reported in patent publication US12187742B2 (XRAD Therapeutics, Inc., priority 2018, dated 2025).
Where a name gives a salt, the structure may show the parent alone.

Assays:
DNA-PK = DNA-PK (Homo sapiens (Human), UniProt P78527); experiment: DNA-PK Enzyme-Linked Immunosorbent Assay (phosphorylation of GST-p53 (1-101) peptide); format: biochemical; conditions: ELISA
Protocol: Assay of Compounds ATM and DNA-PK Inhibition
remove wash solution, turn plate upside down onto a thin paper towel and centrifuge at 1000 rpm for 1 min to absorb all wash buffer. Clean the bottom of plate with moist lint free paper. Scan plate immediately using ODYSSEY CLx (LI-COR) for the best results. DNA-PK Enzyme-Linked Immunosorbent Assay:
On day one, coat 96-well plate (ThermoFisher. Cat #: 442404) with GST-p53 (1-101) peptide (purified by Pharmaron, BCS department) by diluting 3 μg of GST-p53 each well with 0.1 M Na2CO3/NaHCO3, pH 9.6. Incubate the plate overnight at 4° C. The second day, remove coating buffer, wash 2× with PBST (1×PBS containing 0.1% Tween-20). Then add DNA-PK enzyme solution (Invitrogen, #PR9107A; the final DNA-PK concentration is 0.1 μg/mL), series dilution compounds (the final top concentration is 100 nM, 3 fold series dilution, with total 10 doses) and ATP solution (the final ATP concentration is 20 μM) to the 96-well plate. Incubate the plate at 25° C. for 1 hour. Then wash 3× with PBST (1×PBS containing 0.1% Tween-20). Block the plate with PBST+ 1% BSA at 4° C. overnight. The third day, wash 4× with PBST (1×PBS containing 0.1% Tween-20). Then add Phospho-p53 primary antibody (cell signaling Technology, #9286, Phospho-p53 (Ser15) (16G8) Mouse mAb) (1/1000) to each well. Seal with plate and incubate the plate for 1 h at 37° C. Wash 4× with PBST (1×PBS containing 0.1% Tween-20), add 100 μL of HRP-linked secondary antibody (Cell signaling Technology, #7076, Anti-mouse IgG, HRP-linked Antibody) (1/1000) to each well. Seal with tape and incubate the plate for 30 min at 37° C. Wash 4× with PBST (1×PBS containing 0.1% Tween-20), add 100 μL of TMB (Cell signaling Technology, #7004) substrate to each well. Seal with tape and incubate the plate for 10 min at 37° C. Then add 100 μL of Stop solution (Cell signaling Technology, #7002) to each well. Read the plate at 450 nm to detect absorption.

ATM = ATM (Homo sapiens (Human), UniProt Q13315); experiment: ATM in Cell Western Assay (pKAP1 in etoposide-treated MCF-7 cells); format: cell-based
How it was run: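 Cells received compounds in a 10-dose, 3-fold series from a 1 μM final top concentration, then 100 μM etoposide, for 1 hr at 37° C. They were then fixed with paraformaldehyde and permeabilized with 0.1% Triton X-100. After immunostaining, plates were scanned on an infrared imager.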

[1] = MCF-7 cells, etoposide 100 μM, 1 hr, pKAP1 readout
[2] = pKAP1 in etoposide-treated MCF-7 cells

Chain of ATM (Q13315 whole entry): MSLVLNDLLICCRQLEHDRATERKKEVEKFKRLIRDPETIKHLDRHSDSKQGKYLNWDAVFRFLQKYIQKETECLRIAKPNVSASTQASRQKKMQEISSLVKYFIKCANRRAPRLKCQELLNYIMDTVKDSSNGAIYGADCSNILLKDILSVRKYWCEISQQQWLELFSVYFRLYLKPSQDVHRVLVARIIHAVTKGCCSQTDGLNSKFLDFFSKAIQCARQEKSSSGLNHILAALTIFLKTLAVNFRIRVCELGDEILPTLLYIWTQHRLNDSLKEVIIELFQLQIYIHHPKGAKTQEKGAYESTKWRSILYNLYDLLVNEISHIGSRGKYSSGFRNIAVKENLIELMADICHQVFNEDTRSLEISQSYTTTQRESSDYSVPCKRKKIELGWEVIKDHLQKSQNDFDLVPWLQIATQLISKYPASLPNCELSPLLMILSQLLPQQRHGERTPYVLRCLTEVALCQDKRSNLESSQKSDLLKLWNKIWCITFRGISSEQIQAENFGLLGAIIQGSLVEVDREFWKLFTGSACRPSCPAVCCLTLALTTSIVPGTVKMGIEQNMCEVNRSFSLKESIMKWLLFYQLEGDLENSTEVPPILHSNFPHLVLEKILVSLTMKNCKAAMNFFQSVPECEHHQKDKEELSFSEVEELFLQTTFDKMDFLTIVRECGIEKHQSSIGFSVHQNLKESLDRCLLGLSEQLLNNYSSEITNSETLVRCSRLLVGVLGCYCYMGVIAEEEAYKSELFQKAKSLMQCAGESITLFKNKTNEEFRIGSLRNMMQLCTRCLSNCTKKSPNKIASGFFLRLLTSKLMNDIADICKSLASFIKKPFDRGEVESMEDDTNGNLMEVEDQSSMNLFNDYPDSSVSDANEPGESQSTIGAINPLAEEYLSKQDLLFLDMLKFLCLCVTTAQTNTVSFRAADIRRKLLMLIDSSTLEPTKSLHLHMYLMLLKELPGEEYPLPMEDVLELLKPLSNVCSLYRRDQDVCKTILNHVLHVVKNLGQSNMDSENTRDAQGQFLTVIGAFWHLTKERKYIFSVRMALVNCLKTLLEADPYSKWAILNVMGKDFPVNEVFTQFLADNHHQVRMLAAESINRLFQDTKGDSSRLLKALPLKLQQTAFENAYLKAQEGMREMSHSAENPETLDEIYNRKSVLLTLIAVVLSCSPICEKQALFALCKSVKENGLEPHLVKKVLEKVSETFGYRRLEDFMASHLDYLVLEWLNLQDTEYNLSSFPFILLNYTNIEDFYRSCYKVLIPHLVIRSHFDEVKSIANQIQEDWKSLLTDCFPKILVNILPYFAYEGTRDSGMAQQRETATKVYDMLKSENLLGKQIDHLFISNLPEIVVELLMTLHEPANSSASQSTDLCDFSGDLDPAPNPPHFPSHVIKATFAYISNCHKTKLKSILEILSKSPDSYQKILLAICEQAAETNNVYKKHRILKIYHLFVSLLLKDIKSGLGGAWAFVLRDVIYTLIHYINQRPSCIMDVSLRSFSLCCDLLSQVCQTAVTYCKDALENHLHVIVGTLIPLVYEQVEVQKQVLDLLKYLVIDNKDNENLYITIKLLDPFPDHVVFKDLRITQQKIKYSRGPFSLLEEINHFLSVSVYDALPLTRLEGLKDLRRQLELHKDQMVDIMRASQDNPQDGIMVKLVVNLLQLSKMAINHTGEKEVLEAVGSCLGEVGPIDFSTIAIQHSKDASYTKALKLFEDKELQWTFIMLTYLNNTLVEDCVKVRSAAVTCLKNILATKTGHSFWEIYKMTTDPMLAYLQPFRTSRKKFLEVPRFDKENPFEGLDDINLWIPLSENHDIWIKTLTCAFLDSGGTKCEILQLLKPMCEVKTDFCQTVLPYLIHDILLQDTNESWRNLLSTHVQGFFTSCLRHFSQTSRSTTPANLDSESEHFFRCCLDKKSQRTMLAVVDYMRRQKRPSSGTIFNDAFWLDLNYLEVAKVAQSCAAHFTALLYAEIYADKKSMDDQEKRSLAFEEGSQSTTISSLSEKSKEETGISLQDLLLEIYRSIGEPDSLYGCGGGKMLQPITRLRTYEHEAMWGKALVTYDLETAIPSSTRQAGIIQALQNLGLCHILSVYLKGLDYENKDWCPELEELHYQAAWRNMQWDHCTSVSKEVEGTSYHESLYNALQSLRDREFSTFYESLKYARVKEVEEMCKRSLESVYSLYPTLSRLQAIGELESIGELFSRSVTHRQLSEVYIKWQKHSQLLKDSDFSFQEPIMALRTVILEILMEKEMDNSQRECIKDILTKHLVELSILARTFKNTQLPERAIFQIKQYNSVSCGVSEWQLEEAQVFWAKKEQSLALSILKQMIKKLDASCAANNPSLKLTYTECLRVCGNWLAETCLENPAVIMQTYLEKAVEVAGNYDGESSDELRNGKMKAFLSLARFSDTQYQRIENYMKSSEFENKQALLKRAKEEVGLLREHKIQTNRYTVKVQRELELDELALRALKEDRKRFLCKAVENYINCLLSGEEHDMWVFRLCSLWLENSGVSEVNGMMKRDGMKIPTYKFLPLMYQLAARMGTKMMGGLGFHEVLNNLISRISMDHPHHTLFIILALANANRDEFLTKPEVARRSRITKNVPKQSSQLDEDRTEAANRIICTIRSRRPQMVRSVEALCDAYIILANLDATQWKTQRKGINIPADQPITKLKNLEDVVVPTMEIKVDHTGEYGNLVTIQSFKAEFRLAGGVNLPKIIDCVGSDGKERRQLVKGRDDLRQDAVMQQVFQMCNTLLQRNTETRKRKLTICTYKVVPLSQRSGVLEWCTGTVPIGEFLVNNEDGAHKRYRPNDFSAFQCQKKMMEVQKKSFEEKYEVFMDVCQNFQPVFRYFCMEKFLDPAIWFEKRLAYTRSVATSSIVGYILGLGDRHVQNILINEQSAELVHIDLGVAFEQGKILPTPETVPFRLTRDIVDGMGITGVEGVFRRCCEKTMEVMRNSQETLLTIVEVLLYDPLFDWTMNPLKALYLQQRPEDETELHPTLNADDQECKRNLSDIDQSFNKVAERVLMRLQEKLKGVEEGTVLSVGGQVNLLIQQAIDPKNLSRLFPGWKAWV

| Structure (SMILES) | IC50 (DNA-PK; ATP 20 μM) [nM] | IC50 (ATM; [1]) [nM] | IC50 (DNA-PK; 20 μM ATP) [nM] | IC50 (ATM; [2]) [nM] |
| --- | --- | --- | --- | --- |
| CC(C)NCCOc1ncc(-c2cc3c4c(cnc3cc2F)N(C)C(=O)C42CN(c3ccc4c(c3)OCCO4)C2)cc1NS(C)(=O)=O [Example 545, N-(5-(1-(2,3-Dihydrobenzo[b][1,4]dioxin-6-yl)-7′-fluoro-3′-methyl-2′-oxo-2′,3′-dihydrospiro[azetidine-3,1′-pyrrolo[2,3-c]quinolin]-8′-yl)-2-(2-(isopropylamino)ethoxy)pyridin-3-yl)methanesulfonamide] |  |  | 0.5 to 1 | 1 to 100 |
| CC(C)NCCOc1ncc(-c2cc3c4c(cnc3cc2F)N(C)C(=O)C42CN(c3cccc(Cl)c3)C2)cc1NS(C)(=O)=O [Example 524, N-(5-(1-(3-Chlorophenyl)-7′-fluoro-3′-methyl-2′-oxo-2′,3′-dihydrospiro[azetidine-3,1′-pyrrolo[2,3-c]quinolin]-8′-yl)-2-(2-(isopropylamino)ethoxy)pyridin-3-yl)methanesulfonamide] |  |  | 1 to 100 | 1 to 100 |
| CCS(=O)(=O)Nc1cc(-c2cc3c4c(cnc3cc2F)N(C)C(=O)C42CCC2)cnc1N1CC(N(C)C)C1 [Example 343, N-(2-(3-(Dimethylamino)azetidin-1-yl)-5-(7′-fluoro-3′-methyl-2′-oxo-2′,3′-dihydrospiro[cyclobutane-1,1′-pyrrolo[2,3-c]quinolin]-8′-yl)pyridin-3-yl)ethanesulfonamide formate] |  |  | 1 to 100 | 1 to 100 |
| CC(C)NCCOc1ncc(-c2cc3c4c(cnc3cc2F)N(C)C(=O)C42CCC2)cc1NS(=O)(=O)CCN(C)C [Example 375, 2-(Dimethylamino)-N-(5-(7′-fluoro-3′-methyl-2′-oxo-2′,3′-dihydrospiro[cyclobutane-1,1′-pyrrolo[2,3-c]quinolin]-8′-yl)-2-(2-(isopropylamino)ethoxy)pyridin-3-yl)ethane-1-sulfonamide hydrochloride] |  |  | 1 to 100 | 1 to 100 |
| COc1cccc([C@H]2C[C@@]3(C2)C(=O)N(C)c2cnc4cc(F)c(-c5cnc(OCCNC(C)C)c(NS(C)(=O)=O)c5)cc4c23)n1 [Example 429, trans-N-(5-(7′-Fluor-3-(6-methoxypyridin-2-yl)-3′-methyl-2′-oxo-2′,3′-dihydrospiro[cyclobutane-1,1′-pyrrolo[2,3-c]quinolin]-8′-yl)-2-(2-(isopropylamino)ethoxy)pyridin-3-yl)methanesulfonamide] |  |  | 1 to 100 | 1 to 100 |
| COc1ccc([C@H]2C[C@@]3(C2)C(=O)N(C)c2cnc4cc(F)c(-c5cnc(OCCNC(C)C)c(NS(C)(=O)=O)c5)cc4c23)cc1 [Example 421, hydrochloride] |  |  | 1 to 100 | > 100 |
| COc1ncc(-c2ccc3ncc4c(c3c2)C2(CC2)C(=O)N4)cc1NS(=O)(=O)c1ccccc1 [Example 19, N-(2-Methoxy-5-(2′-oxo-2′,3′-dihydrospiro [cyclopropane-1,1′-pyrrolo[2,3-c]quinolin]-8′-yl)pyridin-3-yl) benzenesulfonamide] | < 0.5 | 1 to 100 |  |  |
| CC(C)NCCOc1ncc(-c2cc3c4c(cnc3cc2F)N(C)C(=O)C42CC(C)(C)C2)cc1NS(C)(=O)=O [Example 446, N-(5-(7′-Fluoro-3,3,3′-trimethyl-2′-oxo-2′,3′-dihydrospiro[cyclobutane-1,1′-pyrrolo[2,3-c]quinolin]-8′-yl)-2-(2-(isopropylamino)ethoxy)pyridin-3-yl)methanesulfonamide] |  |  | < 0.5 | 1 to 100 |

Other lines, results leading:

| IC50 (DNA-PK; ATP 20 μM) [nM] | IC50 (ATM; [1]) [nM] | IC50 (DNA-PK; 20 μM ATP) [nM] | IC50 (ATM; [2]) [nM] | Structure (SMILES) |
| --- | --- | --- | --- | --- |
| 0.5 to 1 | 1 to 100 |  |  | CCN(C)C1CN(c2ncc(-c3ccc4ncc5c(c4c3)C3(CCC3)C(=O)N5C)cc2NS(C)(=O)=O)C1 [Example 326, N-(2-(3-(Ethyl(methyl)amino)azetidin-1-yl)-5-(3′-methyl-2′-oxo-2′,3′-dihydrospiro[cyclobutane-1,1′-pyrrolo[2,3-c]quinolin]-8′-yl)pyridin-3-yl)methanesulfonamide hydrochloride] |
| < 0.5 | 0.5 to 1 |  |  | CN(C)CCCOc1ncc(-c2ccc3ncc4c(c3c2)C2(CC2)C(=O)N4C)cc1NS(=O)(=O)c1ccccc1F [Example 107, N-(2-(3-(Dimethylamino)propoxy)-5-(3′-methyl-2′-oxo-2′,3′-dihydrospiro[cyclopropane-1,1′-pyrrolo[2,3-c]quinolin]-8′-yl)pyridin-3-yl)-2-fluorobenzenesulfonamide] |
| 0.5 to 1 | 1 to 100 |  |  | Cl.[2H]C1([2H])N(CCCOc2ncc(-c3ccc4ncc5c(c4c3)C3(CCC3)C(=O)N5C)cc2NS(=O)(=O)c2ccc(C)nc2)C([2H])([2H])C([2H])([2H])C([2H])([2H])C1([2H])[2H] [Example 221, 6-Methyl-N-(5-(3′-methyl-2′-oxo-2′,3′-dihydrospiro[cyclobulane-1,1′-pyrrolo[2,3-c]quinolin]-8′-yl)-2-(3-(piperidin-1-yl-d10)propoxy)pyridin-3-yl)pyridine-3-sulfonamide hydrochloride] |
| 1 to 100 | 0.5 to 1 |  |  | CN1C(=O)C2(CCC2)c2c1cnc1ccc(-c3cnc(OCCCN4CCCC4)c(NS(=O)(=O)N(C)C)c3)cc21 [Example 242, 8′-(5-[(Dimethylsulfamoyl)amino]-6-[3-(pyrrolidin-1-yl)propoxy]pyridin-3-yl)-3′-methyl-2′,3′-dihydrospiro [cyclobutane-1,1′-pyrrolo[2,3-c]quinoline]-2′-one] |
| 0.5 to 1 | 1 to 100 |  |  | CN1C(=O)C2(CCC2)c2c1cnc1ccc(-c3cnc(N4CC(N(C)C)C4)c(NS(=O)(=O)N(C)C)c3)cc21 [Example 288, 8′-(6-[3-(Dimethylamino)azetidin-1-yl]-5-[(dimethylsulfamoyl)amino]pyridin-3-yl}-3′-methyl-2′,3′-dihydrospiro [cyclobutane-1,1′-pyrrolo[2,3-c]quinoline]-2′-one] |
| < 0.5 | 1 to 100 |  |  | CN1C(=O)C2(CCC2)c2c1cnc1ccc(-c3cnc(OCCCN4CCC(F)CC4)c(NS(C)(=O)=O)c3)cc21 [Example 286, N-(2-(3-(4-Fluoropiperidin-1-yl)propoxy)-5-(3′-methyl-2′-oxo-2′,3′-dihydrospiro[cyclobutane-1,1′-pyrrolo[2,3-c]quinolin]-8′-yl)pyridin-3-yl)methanesulfonamide] |
| 1 to 100 | 1 to 100 |  |  | CN1C(=O)C2(CCC2)c2c1cnc1ccc(-c3cnc(OCCCN4CCCC4)c(NS(=O)(=O)C4CC4)c3)cc21 [Example 235, N-(5-(3′-Methyl-2′-oxo-2′,3′-dihydrospiro[cyclobutane-1,1′-pyrrolo[2,3-c]quinolin]-8′-yl)-2-(3-(pyrrolidin-1-yl)propoxy)pyridin-3-yl)cyclopropanesulfonamide] |
|  |  | 1 to 100 | 1 to 100 | CN1CC2CN(c3ncc(-c4ccc5ncc6c(c5c4)C4(CCC4)C(=O)N6C)cc3NS(C)(=O)=O)CC2C1 (stereo not shown) [Example 350, N-(5-(3′-Methyl-2′-oxo-2′,3′-dihydrospiro[cyclobutane-1,1′-pyrrolo[2,3-c]quinolin]-8′-yl)-2-(5-methylhexahydropyrrolo[3,4-c]pyrrol-2(1H)-yl)pyridin-3-yl)methanesulfonamide formate] |
| 1 to 100 | 1 to 100 |  |  | CN(C)CCCOc1ncc(-c2ccc3ncc4c(c3c2)CC2(CCC2)C(=O)N4C)cc1NS(=O)(=O)c1ccccc1 [Example 73, N-(2-(3-(Dimethylamino)propoxy)-5-(4-methyl-3-oxo-3,4-dihydro-1H-spiro[benzo[f][1,7]naphthyridine-2,1′-cyclobutan]-9-yl)pyridin-3-yl)benzenesulfonamide] |
| 1 to 100 | 1 to 100 |  |  | CN1C(=O)C2(CCC2)c2c1cnc1ccc(-c3cnc(OCCCN4CCOCC4)c(NS(=O)(=O)C4CC4)c3)cc21 [Example 306, N-(5-(3′-Methyl-2′-oxo-2′,3′-dihydrospiro[cyclobutane-1,1′-pyrrolo[2,3-c]quinolin]-8′-yl)-2-(3-morpholinopropoxy)pyridin-3-yl)cyclopropanesulfonamide] |
| 1 to 100 | 0.5 to 1 |  |  | CN(C)CC1CCN(c2ncc(-c3ccc4ncc5c(c4c3)C3(CC3)C(=O)N5C)cc2NS(=O)(=O)C2CC2)CC1 [Example 115] |
| 0.5 to 1 | 0.5 to 1 |  |  | CN(C)CCCOc1ncc(-c2ccc3ncc4c(c3c2)C2(CC2)C(=O)N4C)cc1NS(=O)(=O)c1ccccc1OC(F)(F)F [Example 116] |
